# Read-outs that look alike come from different tables or passages of the source.
# Experiments:
# Type in all cases: cell-based
# [1] = system: Escherichia coli NIHJ; assay: MIC against Escherichia coli NIHJ
# Text: (§1) Below are described the antibacterial activities of the compounds in the compositions according to this invention.
# (§2) The testing method complied with the standard method of Japan Sociaty of Chemotherapy.
# [2] = system: Staphylococcus aureus FDA 209P; assay: MIC against Staphylococcus aureus FDA 209P
# Text: as §1, §2
# [3] = system: Desulfovibrio desulfuricans IFO 13699; assay: MIC against Desulfovibrio desulfuricans
# Text: as §1, §2
# [4] = Escherichia coli, Table 1, azaalkenelactams, heart infusion agar, 37° C., 24 hours, read-out: MIC
# [5] = Staphylococcus aureus, FDA209P, 24 h
# [6] = Desulfovibrio desulfuricans, IFO13699, 24 h
# [7] = Escherichia coli, Table 2, derivatives having a carboxylate radical, heart infusion agar, 37° C., 24 hours, read-out: MIC
# [8] = Staphylococcus aureus, FDA209P, Table 1, azaalkenelactams, heart infusion agar, 37° C., 24 hours, read-out: MIC
# [9] = Desulfovibrio desulfuricans, IFO13699, Table 1, azaalkenelactams, heart infusion agar, 37° C., 24 hours, read-out: MIC
Compound,"MIC [2, 5]","MIC [3, 6]","MIC ([1]; Escherichia coli, 24 h)",also measured
"CCCCCCCCCCCCN1CCCN=CC(C)C1=O (stereo not drawn) [Example 44, 1-dodecyl-3-methyl-3,6,7,8-tetrahydro-1,5-diazocin-2-one]",50 µg/mL,25 µg/mL,–,"MIC [1, 4]: 800 µg/mL"
"4-methylbenzylpoly(2 moles)oxypropyleneoxypropyl-6-methyl-2,3,6,7-tetrahydro-1,4-diazocin-5-one [Example 67]",–,–,–,MIC [1]: 400 µg/mL; MIC [2]: 200 µg/mL; MIC [3]: 50 µg/mL
"CCCCCCCC(=O)OCCN1CCN=C(C)CC1=O [Example 24, 4-octoyloxyethyl-7-methyl-3,6-dihydro-2H-1,4-diazepin-5-one]",200 µg/mL,25 µg/mL,–,"MIC [1, 4]: 800 µg/mL"
CCCCCCCCCCCCCCCCCCCCCC(=O)OCCN1CC[N+](CC(=O)[O-])=CCCC1=O [4-behenoyloxyethyl-4-aza-1-azoniacyclooct-8-en-5-one-1-acetate],100 µg/mL,12.5 µg/mL,200 µg/mL,–
"CCCCCCCCCc1ccc(OCC(O)CNCCNCCNCCN2CCN=CCC(C)C2=O)cc1 (stereo not drawn) [Example 69, 4-nonylphenoxy(2-hydroxy)propylaminoethylaminoethylaminoethyl-6-methyl-2,3,6,7-tetrahydro-1,4-diazocin-5-one]",200 µg/mL,50 µg/mL,200 µg/mL,–
CCCCCCCCCCCC(=O)OCCN1CC[N+](CC(=O)[O-])=CC(C)C1=O (stereo not drawn) [4-lauroyloxyethyl-6-methyl-1-azonia-4-azacyclohept-7-en-5-one-1-acetate],50 µg/mL,50 µg/mL,200 µg/mL,–
"CCCCCCCC(=O)NCCN1CCN=CCCC1=O [Example 56, 4-octamidoethyl-2,3,6,7-tetrahydro-1,4-diazocin-5-one]",200 µg/mL,50 µg/mL,100 µg/mL,–
"CCCCCCCCOCCCN1CCN=CC(C)(C)C1=O [Example 63, 4-octoxypropyl-6,6-dimethyl-3-hydro-2H-1,4-diazepin-5-one]",100 µg/mL,50 µg/mL,400 µg/mL,–
CCCCCCCC(=O)NCCN1CC[N+](C(C)C(=O)[O-])=CCCC1=O (stereo not drawn) [4-octamidoethyl-4-aza-1-azoniacyclooct-8-en-5-one-1-propionate],400 µg/mL,50 µg/mL,200 µg/mL,–
CCCCCCCCCCCCCCCCCCCCC(O)CNCCNCCN1CCC[N+](CC(=O)[O-])=C(C)CC1=O (stereo not drawn) [1-(2-hydroxy)docosylaminoethylaminoethyl-4-methyl-1-aza-5-azoniacyclooct-4-en-2-one-5-acetate],25 µg/mL,6.25 µg/mL,50 µg/mL,–
CCCCCCCCCCCCOCCNCCN1CC[N+](CC(=O)[O-])=C(C)CC1=O [4-dodecoxyaminoethyl-7-methyl-1-azonia-4-azacyclohept-7-en-5-one-1-acetate],25 µg/mL,25 µg/mL,200 µg/mL,–
"CCCCCCCCCCCCN1CCN=CC(C)C1=O (stereo not drawn) [Example 42, 4-dodecyl-6-methyl-3,6-dihydro-2H-1,4-diazepin-5-one]",12.5 µg/mL,6.25 µg/mL,400 µg/mL,–
CCCCCCCCCCCCCCC(O)CNCCN1CC[N+](CC(=O)[O-])=C(C)CC1=O (stereo not drawn) [4-(2-hydroxyhexadecyl)aminoethyl-7-methyl-1-azonia-4-azacyclohept-7-en-5-one-1-acetate],25 µg/mL,–,50 µg/mL,"MIC ([3]; Desulfovibrio desulfuricans, IFO13699, Table 2, derivatives having a carboxylate radical, heart infusion agar, 37° C., 24 hours, read-out: MIC): 3.12 µg/mL"
CCCCCCCCCCCCNCCCN1CCC[N+](CC(=O)[O-])=C(C)CC1=O [1-dodecylaminopropyl-4-methyl-1-aza-5-azoniacyclooct-4-en-2-one-5-acetate],12.5 µg/mL,50 µg/mL,100 µg/mL,–
CCCCCCCC(=O)OCCN1CC[N+](CC(=O)[O-])=C(C)CC1=O [4-octoyloxyethyl-7-methyl-1-azonia-4-azacyclohept-7-en-5-one-1-acetate],–,50 µg/mL,–,"MIC [1, 7]: 3200 µg/mL; MIC ([2]; Staphylococcus aureus, FDA209P, Table 2, derivatives having a carboxylate radical, heart infusion agar, 37° C., 24 hours, read-out: MIC): 800 µg/mL"
"CCCCCCCCCCCCCCNCCN1CC[N+](C(C)C(=O)[O-])=CC(C)(C)C1=O (stereo not drawn) [4-tetradecylaminoethyl-6,6-dimethyl-1-azonia-4-azacyclohept-7-en-5-one-1-propionate]",6.25 µg/mL,6.25 µg/mL,100 µg/mL,–
"CCCCCCCCCCCCCCCCCCNCCCN1CCCN=C(C)CC1=O [Example 37, 1-octadecylaminopropyl-4-methyl-3,6,7,8-tetrahydro-1,5-diazocin-2-one]",–,–,–,MIC [1]: 25 µg/mL; MIC [2]: 6.25 µg/mL; MIC [3]: 6.25 µg/mL
CCCCCCCCCCCCCCNCCN1CC[N+](C(C)C(=O)[O-])=CCC(C)C1=O (stereo not drawn),6.25 µg/mL,6.25 µg/mL,100 µg/mL,–
CCCCCCCCCCCCCCC(O)CNCCN1CC[N+](CC(=O)[O-])=CCC(C)C1=O (stereo not drawn) [4-(2-hydroxyhexadecyl)aminoethyl-6-methyl-4-aza-1-azoniacyclooct-8-en-5-one-1-acetate],25 µg/mL,25 µg/mL,100 µg/mL,–

Compound,"MIC [2, 5]","MIC [3, 6]","MIC ([1]; Escherichia coli, 24 h)",also measured
CCCCCCCCc1ccc(OCCOC(C)COC(C)CN2CC[N+](CC(=O)[O-])=C(C)CC2=O)cc1 (stereo not drawn),50 µg/mL,50 µg/mL,–,"MIC [1, 7]: 800 µg/mL"
"CC1=NCCN(CCNC(=O)CCCCCCCCCCCCCCC(C)C)C(=O)C1 [Example 11, 4-isostearamidoethyl-7-methyl-3,6-dihydro-2H-1,4-diazepin-5-one]",100 µg/mL,6.25 µg/mL,–,"MIC [1, 4]: 1600 µg/mL"
"CCCCCCCC/C=C\CCCCCCCCNCCCNC(=O)CCCCCCC/C=C\CCCCCCCC [Oleylaminopropyl oleamide, oleylaminopropyloleamide, reference compound]",–,100 µg/mL,–,"MIC [1, 4]: ≥ 10000 µg/mL; MIC [2, 8]: ≥ 10000 µg/mL"
CCCCCCCCCCCCCCCCCCCCCCNCCN1CC[N+](CC(=O)[O-])=C(C)CC1=O [4-docosylaminoethyl-7-methyl-1-azonia-4-azacyclohept-7-en-5-one-1-acetate],12.5 µg/mL,12.5 µg/mL,–,"MIC [1, 7]: 3200 µg/mL"
"CCCCCCCCCCCCC(O)CNCCN1CCN=C(C)CC1=O (stereo not drawn) [Example 28, 4-(2-hydroxytetradecyl)aminoethyl-7-methyl-3,6-dihydro-2H-1,4-diazepin-5-one]",25 µg/mL,–,25 µg/mL,"MIC [3, 9]: 12.5 µg/mL"
"CCCCCCCCCCCCCCC(O)CNCCN1CCC[N+](CC(=O)[O-])=CC(C)(C)C1=O (stereo not drawn) [1-(2-hydroxyhexadecyl)aminoethyl-3,3-dimethyl-1-aza-5-azoniacyclooct-4-en-2-one-5-acetate]",12.5 µg/mL,12.5 µg/mL,100 µg/mL,–
CCCCCCCCC=CCCCCCCCCN1CCC[N+](CC(=O)[O-])=C(C)CC1=O [1-(9-octadecenyl)-4-methyl-1-aza-5-azoniacyclooct-4-en-2-one-5-acetate],12.5 µg/mL,12.5 µg/mL,–,"MIC [1, 7]: 800 µg/mL"
CCCCCCCC/C=C\CCCCCCCC(=O)NCCN1CC[N+](CC(=O)[O-])=C(C)CC1=O [4-oleamidoethyl-7-methyl-1-azonia-4-azacyclohept-7-en-5-one-1-acetate],25 µg/mL,12.5 µg/mL,–,"MIC [1, 7]: 3200 µg/mL"
CCCCCCCCC=CCCCCCCCCN1CC[N+](CC(=O)[O-])=CCCC1=O [4-(9-octadecenyl)-4-aza-1-azoniacyclooct-8-en-5-one-1-acetate],200 µg/mL,50 µg/mL,400 µg/mL,–
CCCCCCCCCCCCOCC(O)CN1CCC[N+](C(C)C(=O)[O-])=C(C)CC1=O (stereo not drawn) [1-docoxy(2-hydroxy)propyl-4-methyl-1-aza-5-azoniacyclooct-4-en-2-one-5-propionate],25 µg/mL,12.5 µg/mL,–,"MIC [1, 7]: 800 µg/mL"
CCCCCCC(O)CC=CCCCCCCCC(=O)OC(C)CN1CCC[N+](CC(=O)[O-])=C(C)CC1=O (stereo not drawn),50 µg/mL,25 µg/mL,–,"MIC [1, 7]: 1600 µg/mL"
"CCCCCCCCCCCCCCNCCN1CCC[N+](C(C)C(=O)[O-])=CC(C)(C)C1=O (stereo not drawn) [1-tetradecylaminoethyl-3,3-dimethyl-1-aza-5-azoniacyclooct-4-en-2-one-5-propionate]",12.5 µg/mL,6.25 µg/mL,100 µg/mL,–
1-(2-hydroxyhexadecyl)aminoethyl-3-methyl-1-aza-5-azoniacyclooct-4-en-2-one-5-acetate,–,–,–,MIC [1]: 100 µg/mL; MIC [2]: 12.5 µg/mL; MIC [3]: 6.25 µg/mL
"CCCCCCCCCCCCC(O)CN1CCCN=C(C)CC1=O (stereo not drawn) [Example 27, 1-(2-hydroxy)tetradecyl-4-methyl-3,6,7,8-tetrahydro-1,5-diazocin-2-one]",12.5 µg/mL,–,25 µg/mL,"MIC [3, 9]: 6.25 µg/mL"
"CCCCCC[C@@H](O)C/C=C\CCCCCCCC(=O)NCCN1CC[N+](CC(=O)[O-])=CC(C)(C)C1=O [4-ricinolamidoethyl-6,6-dimethyl-1-azonia-4-azacyclohept-7-en-5-one-1-acetate]",400 µg/mL,50 µg/mL,–,"MIC [1, 7]: 1600 µg/mL"
"CCCCCCCCCCCCNC(=O)CCC [Laurylbutylamide, reference compound]",–,400 µg/mL,–,"MIC [1, 4]: ≥ 10000 µg/mL; MIC [2, 8]: ≥ 10000 µg/mL"
"CCCCCCCCCCCCCCCCCCCCCC(=O)OCCCN1CCCN=C(C)CC1=O [Example 25, 1-behenoyloxypropyl-4-methyl-3,6,7,8-tetrahydro-1,5-diazocin-2-one]",–,–,–,"MIC ([1]; Table 1, azaalkenelactams, heart infusion agar, 37° C., 24 hours): 1600 µg/mL; MIC [2]: 200 µg/mL; MIC [3]: 50 µg/mL"
"CCCCCCCCCCCCCCCCCCCCCC(=O)OCCN1CCN=CCCC1=O [Example 57, 4-behenoyloxyethyl-2,3,6,7-tetrahydro-1,4-diazocin-5-one]",100 µg/mL,12.5 µg/mL,100 µg/mL,–

# — patent US4346087A, “Antibacterial surface active agent containing azaalkenelactam” (priority 1979, dated 1982)
